Laboratory results taken from patent publication US7531195B2, “Schisandrin B preparation” (priority 2005, dated 2009).

How the values were obtained:
[1] = tested on: H9c2 cells; assay: Xanthine/xanthine oxidase-induced cytotoxicity (LDH leakage) in H9c2 cells; format: cell-based, rat; conditions: 6.25 μM
Description: (§1) H9c2 cells, a permanent cell line derived from cardiac myoblasts of rat embryo, have early been characterized as a suitable model of myocardial cells [Hescheler et al. 1991]. H9c2 cells were cultured as monolayers in Dulbecco's modified Eagle's medium (GIBCO BRL) supplemented with 10% (v/v) fetal bovine serum. The medium contained glucose (4.5 g/L) and glutamine (4.5 mM), supplemented with NaHCO3 (17 mM), penicillin (100 IU/ml), and streptomycin (100 μg/ml). Cells were grown under an atmosphere of 5% CO2 in air at 37° C. The medium was replaced by fresh medium every 2 or 3 days. A stock of cells was grown in a 75 cm culture flask and split before confluence at a subcultivation ratio of 1:10. Cells used for experiments were seeded at a density of 3.75×10^4 cells/well on a 12-well culture plate, and the cells were grown for 24 h to about 80% confluence prior to drug treatment.
Cultured H9c2 cells were treated with (−) Schisandrin B, (+) Schisandrin B or (±) Schisandrin B (dissolved in DMSO) at 6.25 μM (0.2% DMSO final concentration) for increasing periods of time. Control cells were given the vehicle (i.e. DMSO) only. Immediately following the drug or vehicle pretreatment, the cells were challenged with a mixture of xanthine (X) (0.1 mM) and xanthine oxidase (XO) (0.4 U/ml) for 4 h. The control cells were treated with the medium only. After the X/XO challenge, the medium was taken for the measurement of LDH activity, a biochemical index of cellular injury.

[2] = tested on: H9c2 cells; assay: Menadione-induced toxicity (LDH) in H9c2 cells; format: cell-based, rat
Description: as §1
(§2) Cultured H9c2 cells were treated with (−) Schisandrin B, (+) Schisandrin B or (±) Schisandrin B (dissolved in DMSO) at 6.25 μM (0.2% DMSO final concentration) for 16 h. Control cells were given the vehicle (i.e. DMSO) only. Immediately following the drug or vehicle pretreatment, the cells were challenged with menadione (dissolved in ethanol) at 12.5 μM (0.2% ethanol final concentration) for 4 h. The control cells were treated with the medium containing 0.2% ethanol only. After the menadione challenge, the medium was taken for the measurement of LDH activity, an biochemical index of cell injury.

[3] = tested on: H9c2 cells; assay: Cellular GSH level in H9c2 cells with or without menadione challenge; format: cell-based, rat
Description: as §1, §2
The cells were washed twice with 0.5 ml cold phosphate-buffered saline (PBS), An aliquot (200 μl) of 3% sulfonsalicyclic acid was then added, and the mixture was incubate at 4° C. for 10 min. After centrifuging at 300 g for 15 min at 4° C., the supernatant was used for GSH measurement by an enzymatic method of Griffith (1980).

[4] = tested on: Hsp25; assay: Hsp25 expression in H9c2 cells (Western blot); format: cell-based, rat; conditions: 6.25 μM
Description: as §1
(§3) Cultured H9c2 cells were treated with (−) Schisandrin B, (+) Schisandrin B or (±) Schisandrin B (dissolved in DMSO) at 6.25 μM (0.2% DMSO final concentration) for increasing periods of time. Control cells were given the vehicle (i.e. DMSO) only.
(§4) Immediately following the drug treatment, the cells were washed twice with 0.5 ml cold PBS and treated with 100 μl lysis buffer containing 20 mM Tris HCl, 3 mM EGTA, 1% Triton X-100, 10% glycerol and 2 mM dithiothreitol, pH 7.5, with freshly added protease inhibitors (1 mM phenylmethylsulfonyl fluoride, 0.1 mM benzamide, 5 μg/ml leupeptin, 5 μg aproptinin and 5 μg/ml pepstain A). The mixture was incubated at 4° C. for 15 min with constant shaking. Then the cells were scraped off from the plate, and the extract was transferred to a microcentrifuge tube for centrifugation at 2,400 g for 3 min at 4° C. The resultant supernatant was used for Hsp analysis. Hsp25 and Hsp70 levels was estimated by Western blot analysis using specific antibodies (anti-Hsp25, catalog #SPA-801; anti-Hsp70, catalog #SPA-812) from StressGen (Vancouver, BC, Canada) following SDS-PAGE analysis cell lysates, using a separating gel of 10% acrylamide as described in Ip et. al. [2001]. Hsp25/27 and Hsp70 (human recombinant proteins from StressGen) and actin (bovine muscle from Sigma) were used as markers for reference. […] All immuno-blots were analyzed by densitometry, and the amounts (arbitrary units) of Hsp were normalized with reference to actin levels (arbitrary units) in the sample.

[5] = tested on: Hsp70; assay: Hsp70 expression in H9c2 cells (Western blot); format: cell-based, rat; conditions: 6.25 μM
Description: as §1, §3, §4

[6] = tested on: Hsp25; assay: Tissue Hsp25 level in young female rats (Western blot); format: in vivo, rat; conditions: 10 mg/kg daily, 15 days
Description: Female Sprague-Dawley rats (8 weeks old) were maintained under a 12-h dark/light cycle at about 22° C. and allowed food and water ad libitum. Drug treated animals received a daily bolus dose of (−) Schisandrin B, α-lipoic acid (α-LA) or α-tocopherol (α-Toc) at 10, 5 and 70 mg/kg, respectively, for 15 days. The dosages were determined with reference to the equivalent amount of crude herb prescribed for human or the daily recommended intake in health supplements. The control animals received olive oil only. Twenty-four hours after the last dose, the pentobarbital-anesthetized animals were sacrificed by cardiac excision, and brain. heart, liver and skeletal muscle tissues were obtained.
Hsp25 and Hsp70 levels was estimated by Western blot analysis using specific antibodies (anti-Hsp25, catalog #SPA-801; anti-Hsp70, catalog #SPA-812) from StressGen (Vancouver, BC, Canada) following SDS-PAGE analysis of the nuclear-free tissue homogenates, using a separating gel of 10% acrylamide as described in Ip et. al. (2001). Hsp25/27 and Hsp70 (human recombinant proteins from StressGen) and actin (bovine muscle from Sigma) were used as markers for reference. […] All immuno-blots were analyzed by densitometry, and the amounts (arbitrary units) of Hsp were normalized with reference to actin levels (arbitrary units) in the sample.

[7] = X/XO challenge, 16 h post-dosing
[8] = MENADIONE 12.5 μM for 4 h, drug 6.25 μM for 16 h
[9] = NON-MENADIONE, 6.25 μM for 16 h
[10] = 0 h post-dosing (unpretreated control)

For `COc1cc2c(c(OC)c1OC)-c1c(cc3c(c1OC)OCO3)CC(C)C(C)C2` (single isomer, unassigned; (-)) [(−) Sch B, (−) Schisandrin B], the “time of maximum extent of protection against X/XO-induced cell injury (LDH leakage)” value ([1]; post-dosing) was 16 h, the “LDH Leakage” value ([1]; X/XO challenge, 0 h post-dosing (unpretreated control)) was 34.8 ± 1.13 U/L and the “LDH Leakage” value ([1]; X/XO challenge, 4 h post-dosing) was 26.0 ± 0.92 U/L. For the same compound, the “LDH Leakage” value ([1]; X/XO challenge, 8 h post-dosing) was 22.0 ± 0.63 U/L, the “LDH Leakage” value [1, 7] was 14.2 ± 0.35 U/L and the “LDH Leakage, percent protection vs unpretreated control (0 h)” value [1, 7] was “(78%)”. For the same compound, the “LDH Leakage” value ([1]; X/XO challenge, 24 h post-dosing) was 17.5 ± 0.85 U/L, the “LDH Leakage” value ([1]; X/XO challenge, 48 h post-dosing) was 26.3 ± 0.41 U/L and the LDH [2, 8] was 20.6 ± 0.18 U/ml. For the same compound, the “LDH, percent protection vs menadione control” value [2, 8] was “(60%)”, the LDH [2, 9] was 14.3 ± 0.29 U/ml and the “GSH Level” value [3, 8] was 33.3 ± 1.75 nmol/mg protein. The “GSH Level, percent increase vs menadione control” value [3, 8] was “(81%)”, the “GSH Level” value [3, 9] was 64.0 ± 2.96 nmol/mg protein and the “GSH Level, percent increase vs non-menadione control” value [3, 9] was “(84%)”. For the same compound, the “Hsp 25 Level” value [4, 10] was 1722 ± 99 AU, the “Hsp 25 Level” value ([4]; 8 h post-dosing) was 1386 ± 50 AU and the “Hsp 25 Level” value ([4]; 16 h post-dosing) was 1432 ± 83 AU. The “Hsp 25 Level” value ([4]; 24 h post-dosing) was 1956 ± 113 AU, the “Hsp 25 Level, percent increase vs unpretreated control (0 h)” value ([4]; 24 h post-dosing) was “(14%)” and the “Hsp 25 Level” value ([4]; 48 h post-dosing) was 1878 ± 108 AU. For the same compound, the “time of maximum stimulation of Hsp25 level” value ([4]; post-dosing) was 24 h, the “Hsp 70 Level” value [5, 10] was 465 ± 14.3 AU and the “Hsp 70 Level” value ([5]; 8 h post-dosing) was 486 ± 16.7 AU. The “Hsp 70 Level” value ([5]; 16 h post-dosing) was 548 ± 6.67 AU, the “Hsp 70 Level” value ([5]; 24 h post-dosing) was 1058 ± 61 AU and the “Hsp 70 Level, percent increase vs unpretreated control (0 h)” value ([5]; 24 h post-dosing) was “(128%)”. For the same compound, the “Hsp 70 Level” value ([5]; 48 h post-dosing) was 556 ± 32.1 AU, the “time of maximum stimulation of Hsp70 level” value ([5]; post-dosing) was 24 h and the “changes in Hsp25 level in all tissues” value [6] was “No detectable changes”. For the same compound, the “Heat Shock Protein Level, Hsp25” value ([6]; BRAIN) was 0.16 ± 0.01 AU, the “Heat Shock Protein Level, Hsp25” value ([6]; HEART) was 0.77 ± 0.05 AU and the “Heat Shock Protein Level, Hsp25” value ([6]; LIVER) was 0.41 ± 0.02 AU. For the same compound, the “Heat Shock Protein Level, Hsp25” value ([6]; SKELETAL MUSCLE) was 0.59 ± 0.03 AU.
